Results reported in patent US8324264B1, “Inhibitors of bacterial biofilms and related methods” (Sequoia Sciences, Inc., priority 2011, dated 2012).
Values after ≈ are worked out from the molar mass of the structure shown. Structures can show the parent of a compound that is named as a salt. Where two headings read alike, the source gives them in different places.

How the values were obtained:
[1] = tested on: P. aeruginosa biofilms; assay: Biofilm growth assay (spreading biofilm on semi-solid agar), P. aeruginosa; type: cell-based; settings: Pseudomonas aeruginosa, read-out: P. aeruginosa: concentration that reduces the area of the spreading biofilm by greater than or equal to 85%
Method in brief: (§1)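 Compound added to semi-solid agar: M8 with 0.2% glucose, 100 μM CaCl2, 1 mM MgSO4, 0.5% Casamino acids (P. aeruginosa) or LB with 0.6% agar, 0.5% glucose (E. coli). Center-inoculated with 5 μL overnight culture, incubated overnight at 37 °C; value is concentration (μg/ml) reducing spreading area ≥85% versus negative controls.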

[2] = tested on: E. coli biofilms; assay: Biofilm growth assay (spreading biofilm on semi-solid agar), E. coli; type: cell-based; settings: Escherichia coli, read-out: E. coli: concentration that reduces the area of the spreading biofilm by greater than or equal to 85%
Method in brief: as §1

[3] = biofilm growth assay, overnight 37° C., vs negative controls, Tables 1-5

| Compound | melting point | IC85 [1] [µg/mL] | IC85 [2] [µg/mL] | IC85 [1, 3] [µg/mL] | IC85 [2, 3] [µg/mL] |
| --- | --- | --- | --- | --- | --- |
| CC1=C2[C@@H]3CC(C)(C)CC[C@]3(C(=O)O)CC[C@@]2(C)[C@]2(C)CC[C@H]3C(C)(C)c4n[nH]c(N)c4C[C@]3(C)C2C1 (stereo partly drawn) (as salt: ammonium) [Example 4, (4aS,6aS,6bR,8aR,13aR,15bS)-12-Amino-2,2,6a,6b,9,9,13a,15-octamethyl-2,3,4,4a,5,6,6a,6b,7,8,8a,9,11,13,13a,13b,14,15b-octadecahydro-1H-chryseno[1,2-f]indazole-4-a-carboxylic acid] | > 300 °C | – | – | – | – |
| CC1(C)CC[C@]2(C(=O)O)CC[C@]3(C)C(=C(c4ccco4)CC4[C@@]5(C)Cc6c(n[nH]c6N)C(C)(C)[C@@H]5CC[C@]43C)[C@@H]2C1 (stereo partly drawn) (as salt: ammonium) [Example 7, (4aS,6aS,6bR,13aR)-12-Amino-15-(furan-2-yl)-2,2,6a,6b,9,9,13a-heptamethyl-2,3,4,4a,5,6,6a,6b,7,8,8a,9,11,13,13a,13b,14,15b-octadecahydro-1H-chryseno[1,2-f]indazole-4-a-carboxylic acid] | 250 to 270 °C (dec.) | – | – | – | – |
| CN(C)c1ccc(C2=C3[C@@H]4CC(C)(C)CC[C@]4(C(=O)O)CC[C@@]3(C)[C@]3(C)CC[C@H]4C(C)(C)c5n[nH]c(N)c5C[C@]4(C)C3C2)cc1 (stereo partly drawn) (as salt: ammonium) [Example 10, (4aS,6aS,6bR,13aR)-12-Amino-15-(4-(dimethylamino)phenyl)-2,2,6a,6b,9,9,13a-heptamethyl-2,3,4,4a,5,6,6a,6b,7,8,8a,9,11,13,13a,13b,14,15b-octadecahydro-1H-chryseno[1,2-f]indazole-4-a-carboxylic acid] | > 300 °C | – | – | – | – |
| CC1(C)CC[C@]2(C(=O)O)CC[C@]3(C)C(=C(c4ccc5c(c4)CCN5)CC4[C@@]5(C)Cc6c(n[nH]c6N)C(C)(C)[C@@H]5CC[C@]43C)[C@@H]2C1 (stereo partly drawn) (as salt: ammonium) [Example 11, (4aS,6aS,6bR,13aR)-12-Amino-15-(indolin-5-yl)-2,2,6a,6b,9,9,13a-heptamethyl-2,3,4,4a,5,6,6a,6b,7,8,8a,9,11,13,13a,13b,14,15b-octadecahydro-1H-chryseno[1,2-f]indazole-4-a-carboxylic acid] | 170 to 190 °C (dec.) | – | – | – | – |
| CCC1=C2[C@@H]3CC(C)(C)CC[C@]3(C(=O)O)CC[C@@]2(C)[C@]2(C)CC[C@H]3C(C)(C)c4n[nH]c(N)c4C[C@]3(C)C2C1 (stereo partly drawn) (as salt: ammonium) [Example 14, (4aS,6aS,6bR,8aR,13aR,15bS)-12-Amino-15-ethyl-2,2,6a,6b,9,9,13a-heptamethyl-2,3,4,4a,5,6,6a,6b,7,8,8a,9,11,13,13a,13b,14,15b-octadecahydro-1H-chryseno[1,2-f]indazole-4-a-carboxylic acid] | > 300 °C | – | – | – | – |
| CC1(C)CC[C@]2(C(=O)O)CC[C@]3(C)C(=C(c4cccc(O)c4)CC4[C@@]5(C)Cc6c(n[nH]c6N)C(C)(C)C5CC[C@]43C)C2C1 (stereo partly drawn) (as salt: ammonium) [Example 16, (4aS,6aS,6bR,13aR)-12-Amino-15-(3-hydroxyphenyl)-2,2,6a,6b,9,9,13a-heptamethyl-2,3,4,4a,5,6,6a,6b,7,8,8a,9,11,13,13a,13b,14,15b-octadecahydro-1H-chryseno[1,2-f]indazole-4-a-carboxylic acid] | 260 to 280 °C (dec.) | – | – | – | – |
| CC1(C)CC[C@]2(C(=O)O)CC[C@]3(C)C(=C(c4ccccc4N)CC4[C@@]5(C)Cc6c(n[nH]c6N)C(C)(C)C5CC[C@]43C)C2C1 (stereo partly drawn) (as salt: ammonium) [Example 23, (4aS,6aS,6bR,13aR)-12-Amino-15-(2-aminophenyl)-2,2,6a,6b,9,9,13a-heptamethyl-2,3,4,4a,5,6,6a,6b,7,8,8a,9,11,13,13a,13b,14,15b-octadecahydro-1H-chryseno[1,2-f]indazole-4-a-carboxylic acid] | 210 to 230 °C (dec.) | – | – | – | – |
| CC1(C)CC[C@]2(C(=O)Nc3nnn[nH]3)CC[C@]3(C)C(=CCC4[C@@]5(C)Cc6c(n[nH]c6N)C(C)(C)C5CC[C@]43C)C2C1 (stereo partly drawn) [Compound 61, (4aS,6aS,6bR,13aR)-12-Amino-2,2,6a,6b,9,9,13a-heptamethyl-N-(1H-tetrazol-5-yl)-2,3,4,4a,5,6,6a,6b,7,8,8a,9,11,13,13a,13b,14,15b-octadecahydro-1H-chryseno[1,2-f]indazole-4-a-carboxamide] | > 300 °C | 0.5 (≈ 0.892 µM) | 0.5 (≈ 0.892 µM) | – | – |
| CC1(C)CC[C@]2(C(=O)Nc3cc(N)n[nH]3)CC[C@]3(C)C(=CCC4[C@@]5(C)Cc6c(n[nH]c6N)C(C)(C)C5CC[C@]43C)C2C1 (stereo partly drawn) [Compound 69, (4aS,6aS,6bR,13aR)-12-amino-N-(3-amino-1H-pyrazol-5-yl)-2,2,6a,6b,9,9,13a-heptamethyl-2,3,4,4a,5,6,6a,6b,7,8,8a,9,11,13,13a,13b,14,15b-octadecahydro-1H-chryseno[1,2-f]indazole-4-a-carboxamide] | > 300 °C | – | – | 1 (≈ 1.74 µM) | 1 (≈ 1.74 µM) |
| Cn1nc([C@]23CCC(C)(C)CC2C2=CCC4[C@@]5(C)Cc6c(n[nH]c6N)C(C)(C)C5CC[C@@]4(C)[C@]2(C)CC3)cc1N (stereo partly drawn) [Compound 72, (4aS,6aS,6bR,8aR,13aR,15bS)-4-a-(5-Amino-1-methyl-1H-pyrazol-3-yl)-2,2,6a,6b,9,9,13a-heptamethyl-2,3,4,4a,5,6,6a,6b,7,8,8a,9,11,13,13a,13b,14,15b-octadecahydro-1H-chryseno[1,2-f]indazol-12-amine] | 195 to 210 °C (dec.) | – | – | 1 (≈ 1.84 µM) | > 2 |
| CC1(C)CC[C@]2(C(=O)Nc3cc(S)n[nH]3)CC[C@]3(C)C(=CCC4[C@@]5(C)Cc6c(n[nH]c6N)C(C)(C)C5CC[C@]43C)C2C1 (stereo partly drawn) [Compound 79, (4aS,6aS,6bR,13aR)-12-Amino-N-(3-mercapto-1H-pyrazol-5-yl)-2,2,6a,6b,9,9,13a-heptamethyl-2,3,4,4a,5,6,6a,6b,7,8,8a,9,11,13,13a,13b,14,15b-octadecahydro-1H-chryseno[1,2-f]indazole-4-a-carboxamide] | > 300 °C | – | – | 0.25 (≈ 0.423 µM) | 0.5 (≈ 0.846 µM) |
| CC1(C)CC[C@]2(c3n[nH]c(O)c3CCNC(N)=O)CC[C@]3(C)C(=CCC4[C@@]5(C)Cc6c(n[nH]c6N)C(C)(C)C5CC[C@]43C)C2C1 (stereo partly drawn) [Compound 87, 1-(2-(3-((4aS,6aS,6bR,13aR)-12-Amino-2,2,6a,6b,9,9,13a-heptamethyl-2,3,4,4a,5,6,6a,6b,7,8,8a,9,11,13,13a,13b,14,15b-octadecahydro-1H-chryseno[1,2-f]indazol-4-a-yl)-5-hydroxy-1H-pyrazol-4-yl)ethyl)urea] | > 300 °C | – | – | 0.5 (≈ 0.809 µM) | 1 (≈ 1.62 µM) |
| CC1(C)CC[C@]2(c3n[nH]c(O)c3N3CCNCC3)CC[C@]3(C)C(=CCC4[C@@]5(C)Cc6c(n[nH]c6N)C(C)(C)C5CC[C@]43C)C2C1 (stereo partly drawn) [Compound 90, 3-((4aS,6aS,6bR,13aR)-12-Amino-2,2,6a,6b,9,9,13a-heptamethyl-2,3,4,4a,5,6,6a,6b,7,8,8a,9,11,13,13a,13b,14,15b-octadecahydro-1H-chryseno[1,2-f]indazol-4-a-yl)-4-(piperazin-1-yl)-1H-pyrazol-5-ol] | > 300 °C | – | – | 0.5 (≈ 0.812 µM) | 1 (≈ 1.62 µM) |
| CC1(C)CC[C@]2(C(=O)Sc3nnc(N)[nH]3)CC[C@]3(C)C(=C(c4cccnc4)CC4[C@@]5(C)Cc6c(n[nH]c6N)C(C)(C)[C@@H]5CC[C@]43C)[C@@H]2C1 (stereo partly drawn) [Compound 91, (4aS,6aS,6bR,8aR,13aR,15bS)—S-5-Amino-4H-1,2,4-triazol-3-yl 12-amino-2,2,6a,6b,9,9,13a-heptamethyl-15-(pyridin-3-yl)-2,3,4,4a,5,6,6a,6b,7,8,8a,9,11,13,13a,13b,14,15b-octadecahydro-1H-chryseno[1,2-f]indazole-4-a-carbothioate] | > 300 °C | – | – | 1 (≈ 1.49 µM) | 1 (≈ 1.49 µM) |
| CC1(C)CC[C@]2(c3n[nH]c(O)c3CCN)CC[C@]3(C)C(=C(c4ccoc4CN4CCOCC4)CC4[C@@]5(C)Cc6c(n[nH]c6N)C(C)(C)[C@@H]5CC[C@]43C)[C@@H]2C1 (stereo partly drawn) [Compound 92, 3-((4aS,6aS,6bR,8aR,13aR,15bS)-12-Amino-2,2,6a,6b,9,9,13a-heptamethyl-15-(2-(morpholinomethyl)furan-3-yl)-2,3,4,4a,5,6,6a,6b,7,8,8a,9,11,13,13a,13b,14,15b-octadecahydro-1H-chryseno[1,2-f]indazol-4-a-yl)-4-(2-aminoethyl)-1H-pyrazol-5-ol] | 238 to 240 °C | – | – | 0.5 (≈ 0.676 µM) | 2 (≈ 2.7 µM) |
| C/C=C/C1=C2[C@@H]3CC(C)(C)CC[C@]3(C(=O)O)CC[C@@]2(C)[C@]2(C)CC[C@H]3C(C)(C)c4n[nH]c(N)c4C[C@]3(C)C2C1 (stereo partly drawn) [Example 5, (4aS,6aS,6bR,8aR,13aR,15bS)-12-Amino-2,2,6a,6b,9,9,13a-heptamethyl-15-((E)-prop-1-enyl)-2,3,4,4a,5,6,6a,6b,7,8,8a,9,11,13,13a,13b,14,15b-octadecahydro-1H-chryseno[1,2-f]indazole-4-a-carboxylic acid] | > 300 °C | – | – | 0.5 (≈ 0.937 µM) | 1 (≈ 1.87 µM) |
| CC1(C)CC[C@]2(C(=O)O)CC[C@]3(C)C(=C(c4cc[nH]c4)CC4[C@@]5(C)Cc6c(n[nH]c6N)C(C)(C)[C@@H]5CC[C@]43C)[C@@H]2C1 (stereo partly drawn) [Example 6, (4aS,6aS,6bR,8aR,13aR,15bS)-12-Amino-2,2,6a,6b,9,9,13a-heptamethyl-15-(1H-pyrrol-3-yl)-2,3,4,4a,5,6,6a,6b,7,8,8a,9,11,13,13a,13b,14,15b-octadecahydro-1H-chryseno[1,2-f]indazole-4-a-carboxylic acid] | > 300 °C | – | – | 0.125 (≈ 0.224 µM) | 0.25 (≈ 0.447 µM) |
